Patent US7022689B2, “5-amidino-n-(2-aminophenethyl)-n-hydroxy-benzenesulffonamide derivative, medical composition containing the same, pharmaceutical use thereof and intermediate therefor” (Kissei Pharmaceutical Co., Ltd., priority 2001, dated 2006)
pIC50: −log10 of the molar value. Where a name gives a salt, the structure may show the parent alone.

Experiments:
[1] = target: T1, human thrombin (Homo sapiens, UniProt P00734); experiment: Measurement of inhibitory activity for thrombin (S-2238 chromogenic substrate); type: biochemical; conditions: substrate S-2238, tris-NaCl buffer pH 8.4, 10 minutes at 37° C., absorbance 405 nm
T1 construct: human thrombin (Sigma Chemical Company); purchased Sigma Chemical Company
Procedure: Measurement of Inhibitory Activity for Thrombin
2.5 μL of a dimethylsulfoxide solution of a test compound, 187.5 μL of 100 mM tris-200 mM NaCl buffer (pH 8.4) and 50 μL of 1 mM S-2238 (Daiichi Pure Chemicals) aqueous solution were poured into 96 well microplate. Then 10 μL of 2.0 U/mL human thrombin (Sigma Chemical Company) in gelatin-glycine buffer was added and the mixture was incubated for 10 minutes at 37° C. The reaction was terminated with the addition of 50 μL of 60% acetic acid and absorbance (405 nm) was measured by a microplate reader (SPECTRAmax250, Molecular Devices).
The group with 2.5 μL of the dimethylsulfoxide solution instead of the test compound solution was defined as the control, and the group with 10 μL of the gelatin-glycine buffer solution instead of human thrombin was defined as the blank. The concentration of a test compound that inhibited the absorbance of control by 50% (IC50) was obtained, and this value was used as the index of inhibitory activity for thrombin.

[2] = target: T2, human activated blood coagulation factor X (Homo sapiens, UniProt P00742); experiment: Measurement of inhibitory activity for activated blood coagulation factor X (S-2222 chromogenic substrate); type: biochemical; conditions: substrate S-2222, tris-NaCl buffer pH 8.4, 10 minutes at 37° C., absorbance 405 nm
T2 construct: purchased Calbiochem
T2 sequence (P00742 235-488 limits assumed): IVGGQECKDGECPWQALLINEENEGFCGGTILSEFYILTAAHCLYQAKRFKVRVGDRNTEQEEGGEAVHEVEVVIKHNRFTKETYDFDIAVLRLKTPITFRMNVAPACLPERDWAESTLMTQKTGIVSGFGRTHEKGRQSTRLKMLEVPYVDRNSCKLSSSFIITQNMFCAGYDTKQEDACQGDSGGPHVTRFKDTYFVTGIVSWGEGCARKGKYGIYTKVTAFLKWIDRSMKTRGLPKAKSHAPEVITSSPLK
T2 sequence (P00742 41-179 partner limits assumed): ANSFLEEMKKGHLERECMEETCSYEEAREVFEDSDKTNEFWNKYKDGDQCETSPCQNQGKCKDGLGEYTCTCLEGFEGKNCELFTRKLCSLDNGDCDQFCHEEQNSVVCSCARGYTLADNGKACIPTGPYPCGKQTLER
Procedure: Measurement of Inhibitory Activity for Activated Blood Coagulation Factor X 2.5 μL of a dimethylsulfoxide solution of a test compound, 187.5 μL of 100 mM tris-200 mM NaCl buffer (pH 8.4) and 50 μL of 1 mM S-2222 (Daiichi Pure Chemicals) aqueous solution were poured into 96 well microplate. Then 10 μL of 0.6 U/mL human activated blood coagulation factor X (Calbiochem) in gelatin-glycine buffer was added and the mixture was incubated for 10 minutes at 37° C. The reaction was terminated with the addition of 50 μL of 60% acetic acid and absorbance (405 nm) was measured by a microplate reader (SPECTRAmax250, Molecular Devices). The group with 2.5 μL of the dimethylsulfoxide solution instead of the test compound solution was defined as the control, and the group with 10 μL of the gelatin-glycine buffer solution instead of human activated blood coagulation factor X was defined as the blank.

Row | pIC50 [1] | pIC50 [2] | Structure (SMILES)
1 | < 4.00 | 7.11 | CC(C)c1ccc(CCNS(=O)(=O)c2cc(C(=N)N)ccc2O)c(NCC(=O)O)c1 [Compound 18, [[2-[2-(5-Carbamimidoyl-2-hydroxybenzenesulfonylamino)ethyl]-5-isopropylphenyl]amino]acetic acid]
2 | 4.43 | 8.15 | CS(=O)(=O)c1ccccc1-c1ccc(CCNS(=O)(=O)c2cc(C(=N)N)ccc2O)c(NCC(=O)O)c1 [Compound 17, [[4-[2-(5-Carbamimidoyl-2-hydroxybenzenesulfonylamino)ethyl]-2′-methanesulfonylbiphenyl-3-yl]amino]acetic aid hydrochloride]
